Source: patent US20170312260A1 (LAUNX BIOMEDICAL CO., LTD., priority 2014, published 2017)
Values joined by “and” are separate entries in the source; they are usually repeats but may differ in a detail not shown here. Identical values can stand only once. Like-named read-outs stand apart in the source and are kept apart here.

How the values were obtained:
[1] = system: AGS (Gastric Adenocarcinoma); test: WST-1 cell viability analysis, AGS; assay type: cell-based; conditions: Homo sapiens
Method: (§1) The cell numbers were counted and reseed as 2×10^6 in cell culture plate/flask. Then, the culture medium were added to a volume of 10 ml, and the cells were cultured for 2-3 days. Then, the cells were suspended for loading into 96-well plates. The number of cells was 3000 and the volume of the culture medium was 100 μl each well.
(§2) Removing the original culture medium from 96-well plate. Then add 100 μl of commercially drug at a concentration of 10 μM per well. After 72 hours, add the diluted WST-1 reagent to the well with 100 μl/well, and the diluted WST-1 reagent was acquired from the dilution of 9:1 medium and WST-1 stock reagent. Finally, the total volume of each well was 200 μl/well. Culture the 96-well plate at 37° C. for 30 to 90 minutes. Detecting and calculate the survival rate of each cancer cells with an ELISA reader at OD450 nm.

[2] = WST-1 cell viability analysis, BEAS-2B; assay type: cell-based; conditions: human
Source text: Subculture the different types of cancer cell lines. The cancer cells includes lung cancer, gastric cancer, hepatic cancer, colon cancer, skin cancer, cervical cancer, prostate cancer, bladder cancer, breast cancer, leukemia, pancreatic cancer, ovarian cancer, tongue cancer, osteosarcoma, and renal cancer. The normal cells used in the control group included kidney cell (HEK293) and human bronchial epithelial cell line BEAS-2B (as shown in Table 1).
as §1, §2

[3] = system: ovarian cancer cell line TOV-21G; test: WST-1 cell viability analysis, TOV-21G; assay type: cell-based; conditions: Homo sapiens, TOV21G
Method: as §1, §2

[4] = system: HepG2 (hepatocellular carcinoma); test: WST-1 cell viability analysis, HepG2; assay type: cell-based; conditions: Homo sapiens, HepG2, 10 μM, 72 hours, read-out: viability (survival rate) of HepG2 cells
[5] = system: MKN-45 (Gastric Adenocarcinoma); test: WST-1 cell viability analysis, MKN-45; assay type: cell-based; conditions: Homo sapiens, MKN-45, 10 μM, 72 hours, read-out: viability (survival rate) of MKN-45 cells
Method: as §1, §2

[6] = system: gastric cancer cells (AGS); test: Animal model test, subcutaneous tumor in nude mice; assay type: in vivo, female mice (BALB/cAnN.Cg-Foxn1^nu/CrlNarl); conditions: for tumor volume growth, average / tumor volume, average: average of mice; for tumor longest length / tumor volume / tumor volume growth / tumor width: single mice A-C
Method: Animal Model Test of […] with Dose 100 mg/kg/Day and 200 mg/kg/day
In this invention, the female mice were (BALB/cAnN.Cg-Foxn1^nu/CrlNarl) purchased from National Laboratory Animal Center (Taiwan)). The weight of the mice were 21±1 g. These mice were subcutaneously injected with gastric cancer cells (AGS) and then put these mice into different cages at random. The drug test experiment was divided into three groups, include “normal control group”, “low dose group (100 mg/kg/day)”, and “high dose group (200 mg/kg/day)”. These mice were then injected test drug intraperitoneally once daily […]. The tumor sizes and body weight were measured twice a week. The tumor sizes were measured and calculated by formula: (L×W^2)/2. L represents the tumor longest length. W represents the tumor shortest diameter.

[7] = system: colorectal cancer cell line HCT116-wt; test: WST-1 cell viability analysis, HCT116-wt; assay type: cell-based; conditions: 72 hours, read-out: viability (survival rate) of HCT116-wt cells
Method: as §1, §2

[8] = system: gastric cancer cells; test: Summary of cell viability, gastric cancer; assay type: cell-based; conditions: 72 hours, summary over the gastric cancer cell lines, read-out: Inhibitory effect, gastric cancer
Method: as §1, §2
As a result in the experiments of the present invention.

[9] = system: ovarian cancer cell line NIH-OVCAR-3; test: WST-1 cell viability analysis, NIH-OVCAR-3; assay type: cell-based; conditions: Homo sapiens, OVCAR-3, 10 μM, 72 hours, read-out: viability (survival rate) of NIH-OVCAR-3 cells
[10] = system: A375 (amelanotic melanoma); test: WST-1 cell viability analysis, A375; assay type: cell-based; conditions: Homo sapiens, A-375, 10 μM, 72 hours, read-out: viability (survival rate) of A375 cells
[11] = high dose (200 mg/kg/day) i.p., Fifth measurement
[12] = high dose (200 mg/kg/day) i.p., First measurement
[13] = high dose (200 mg/kg/day) i.p., First measurement, 200 mg/kg/day
[14] = high dose (200 mg/kg/day) i.p., Fourth measurement
[15] = high dose (200 mg/kg/day) i.p., Second measurement
[16] = high dose (200 mg/kg/day) i.p., Second measurement, 200 mg/kg/day
[17] = high dose (200 mg/kg/day) i.p., Third measurement
[18] = low dose (100 mg/kg/day) i.p., Fifth measurement
[19] = low dose (100 mg/kg/day) i.p., First measurement
[20] = low dose (100 mg/kg/day) i.p., First measurement, 100 mg/kg/day
[21] = low dose (100 mg/kg/day) i.p., Fourth measurement
[22] = low dose (100 mg/kg/day) i.p., Second measurement
[23] = low dose (100 mg/kg/day) i.p., Second measurement, 100 mg/kg/day
[24] = low dose (100 mg/kg/day) i.p., Third measurement
[25] = low dose (100 mg/kg/day) i.p., Third measurement, 100 mg/kg/day

CC1=C(C(=O)OC(C)C)C(c2cccc([N+](=O)[O-])c2)C(C(=O)OC2CN(C(c3ccccc3)c3ccccc3)C2)=C(N)N1 (centres unmarked) [Azelnidipine]
viability at 10 µM ([1]; 72 h, average of 4 tests, read-out: average viability of AGS cells): 90.2% | viability at 10 µM ([1]; 72 hours, run 0510-10 min, read-out: viability (survival rate) of AGS cells): 120% | viability at 10 µM ([1]; 72 hours, run 0512-10 min, read-out: viability (survival rate) of AGS cells): 124% | viability at 10 µM ([1]; 72 hours, run 0515-10 min, read-out: viability (survival rate) of AGS cells): 42.1% | viability at 10 µM ([1]; 72 hours, run 0517-10 min, read-out: viability (survival rate) of AGS cells): 74.3% | viability at 72 h, 10 µM ([2]; BEAS-2B bronchial epithelial cells, run 0510-10 min, read-out: viability (survival rate) of BEAS-2B cells): 61.3% | viability at 72 h, 10 µM ([2]; BEAS-2B cells (normal bronchial epithelial cell line), average of 4 tests, read-out: average viability of BEAS-2B cells): 77.5% | viability at 72 h, 10 µM ([2]; BEAS-2B cells (normal bronchial epithelial cell line), run 0512-10 min, read-out: viability (survival rate) of BEAS-2B cells): 61.8% | viability at 72 h, 10 µM ([2]; BEAS-2B cells (normal bronchial epithelial cell line), run 0515-10 min, read-out: viability (survival rate) of BEAS-2B cells): 102% | viability at 72 h, 10 µM ([2]; BEAS-2B cells (normal bronchial epithelial cell line), run 0517-10 min, read-out: viability (survival rate) of BEAS-2B cells): 85.4% | viability at 10 µM ([3]; 72 h, average of 4 tests, read-out: average viability of TOV-21G cells): 27.2% | viability at 10 µM ([3]; 72 hours, run 4-30 min, read-out: viability (survival rate) of TOV-21G cells): 60.1% | viability at 10 µM ([3]; 72 hours, run 7-3-30 min, read-out: viability (survival rate) of TOV-21G cells): 15.6% | viability at 10 µM ([3]; 72 hours, run 7-4-30 min, read-out: viability (survival rate) of TOV-21G cells): 13.3% | viability at 10 µM ([3]; 72 hours, run 7-7-30 min, read-out: viability (survival rate) of TOV-21G cells): 19.6% | viability at 10 µM ([4]; run 0524-20 min): 110% | viability at 10 µM ([4]; run 0526-20 min): 87.2% | viability at 10 µM ([4]; run 0529-20 min): 112% | viability at 10 µM ([4]; run 0531-20 min): 93.7% | viability at 10 µM ([5]; run 0510-10 min): 174% | viability at 10 µM ([5]; run 0512-10 min): 184% | viability at 10 µM ([5]; run 0515-10 min): 68.5% | viability at 10 µM ([5]; run 0517-10 min): 130% | tumor volume growth, average [6, 11]: 0 mm^3 | tumor volume, average [6, 11]: 0 mm^3 | tumor longest length [6, 11]: 0 mm | tumor volume [6, 11]: 0 mm^3 | tumor volume growth [6, 11]: 0 mm^3 | tumor width [6, 11]: 0 mm | tumor volume growth, average [6, 12]: 25.67 mm^3 | tumor volume, average [6, 12]: 25.67 mm^3 | tumor longest length [6, 13]: 4 mm and 6 mm | tumor volume [6, 13]: 18 mm^3 and 27 mm^3 and 32 mm^3 | tumor volume growth [6, 13]: 18 mm^3 and 27 mm^3 and 32 mm^3 | tumor width [6, 13]: 3 mm and 4 mm | tumor volume growth, average [6, 14]: −50 mm^3 | tumor volume, average [6, 14]: 0 mm^3 | tumor longest length [6, 14]: 0 mm | tumor volume [6, 14]: 0 mm^3 | tumor width [6, 14]: 0 mm | tumor volume growth, average [6, 15]: 57.67 mm^3 | tumor volume, average [6, 15]: 83.33 mm^3 | tumor width [6, 15]: 5 mm | tumor longest length [6, 16]: 7 mm and 6 mm | tumor volume [6, 16]: 87.5 mm^3 and 75 mm^3 | tumor volume growth [6, 16]: 69.5 mm^3 and 48 mm^3 and 55.5 mm^3 | tumor volume growth, average [6, 17]: −33.3333 mm^3 | tumor volume, average [6, 17]: 50 mm^3 | inhibition of tumor growth, high dose compared with low dose (in words) ([6]; high dose, FIG. 3): better effect to inhibit tumor growth | tumor volume growth, average [6, 18]: 2.667 mm^3 | tumor volume, average [6, 18]: 22 mm^3 | tumor volume growth, average [6, 19]: 176.3333 mm^3 | tumor volume, average [6, 19]: 176.3333 mm^3 | tumor longest length [6, 20]: 8 mm and 6 mm and 7 mm | tumor width [6, 20]: 8 mm and 7 mm and 6 mm | tumor volume growth, average [6, 21]: −88 mm^3 | tumor volume, average [6, 21]: 19.33 mm^3 | tumor volume growth, average [6, 22]: −77.5 mm^3 | tumor volume, average [6, 22]: 98.83 mm^3 | tumor longest length [6, 23]: 7 mm and 6 mm and 5 mm | tumor width [6, 23]: 6 mm and 5 mm | tumor volume growth, average [6, 24]: 0 mm^3 | tumor volume, average [6, 24]: 98.83 mm^3 | tumor volume growth [6, 24]: 0 mm^3 | tumor longest length [6, 25]: 7 mm and 6 mm and 5 mm | tumor width [6, 25]: 6 mm and 5 mm | inhibition effect on tumor cells (in words) ([6]; low dose and high dose, FIG. 2): significant inhibition effect | tumor volume (in words) ([6]; low dose and high dose, FIG. 3): reduce the tumor volume | tumor volume growth (in words) ([6]; low dose and high dose, FIG. 3): effectively slow down the tumor volume growth | viability at 10 µM ([7]; run 0602-30 min): 70.7% | viability at 10 µM ([7]; run 0605-10 min): 146% | viability at 10 µM ([7]; run 0607-10 min): 159% | viability at 10 µM ([7]; run 0609-10 min): 69.3% | viability at 10 µM [8]: 115% | viability at 10 µM ([9]; run 7-3-30 min): 106% | viability at 10 µM ([9]; run 7-4-30 min (fourth column)): 104% | viability at 10 µM ([9]; run 7-4-30 min (second column)): 99.1% | viability at 10 µM ([10]; run 0602-30 min): 124% | viability at 10 µM ([10]; run 0607-10 min): 76% | viability at 10 µM ([10]; run 0609-10 min): 105%
